We go through seven compounds from patent US9440957B2, “Compounds and compositions for modulating EGFR Activity” (Novartis AG, priority 2012, dated 2016).

Experiment [1] addresses human EGFR L858R/T790M (NIH/3T3 cells) (Homo sapiens, UniProt P00533, L858R/T790M). The experiment in a line: EGFR target modulation in engineered NIH/3T3 cell lines (phospho-EGFR Y1068 AlphaLISA), EGFR L858R/T790M. It counts as cell-based. As to conditions: engineered NIH/3T3 cells, read-out: NIH3T3 IC50 (μM) EGFR (L858R/T790M). In a few lines:
(§1)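 Read-out is phospho-Y1068 AlphaLISA on cell lysates, with anti-total EGFR at 1 nM final equilibrated 1 h at room temperature. Cells were dosed 3 h with a 12-point 1:3 series starting from a 10 μM stock. Only the WT line received 50 ng/ml EGF for 5 min.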
In general terms: Bead proximity is the source of the signal in Alpha formats.

Experiment [2] addresses HEKn (EGFR WT) (Homo sapiens, UniProt P00533). Description: EGFR target modulation in HEKn (EGFR-WT) cell line (phospho-EGFR Y1173 ELISA). It counts as cell-based. As to conditions: value outside parentheses. In a few lines:
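Read-out was Y1173 phosphorylation, measured by chemiluminescent ELISA with anti-EGFR capture of lysates. HEKn keratinocytes (wild-type EGFR) were treated with compound for 3 h.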

The target in experiment [3] is T1, EGFR(L858R/T790M) (Homo sapiens, UniProt P00533, L858R/T790M).
T1 construct: purchased from Carna (GST-a.a. 669-1210)
Description: EGFR biochemical assay (HTRF), IC50 determinations. In a few lines: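 Two formats were run: compound preincubated at room temperature with enzyme and biotin-TK peptide before ATP starts the reaction, or no preincubation with enzyme added last. Reactions ran 60 min at room temperature and were stopped with EDTA. Phosphopeptide was read by HTRF (PT66K/SAXL, 1 h).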

For experiment [4], the target named is HCC827 (Del E746-A750) (Homo sapiens, UniProt P00533, DEL746-750). Description: EGFR target modulation in HCC827 cell line (phospho-EGFR Y1173 ELISA). It counts as cell-based. Here is the method: EGFR Target Modulation in H1975, H3255 and HCC827 Cell Lines Tissue Culture. Cells were maintained in 10% FBS/RPMI supplemented with 100 μg/ml Penicillin/Streptomycin (Hyclone #SH30236.01). […] The cells were allowed to incubate overnight in a 37° C., 5% CO2 humidified tissue culture incubator. […] The serial diluted compounds were transferred to the plate containing cells by using a 50 nl Pin Head device (Perkin Elmer) and the cells were placed back in the incubator for 3 hours. Phospho-EGFR ([…]) Target Modulation Assay. The media was reduced to 20 ul using a Bio-Tek ELx 405 SelectTM plate washer. […] The plates were shaken at 4° C. for 20 minutes. An aliquot of 25 ul from each well was transferred to pEGFR(Y1173) ELISA plates for analysis. Phospho-EGFR ([…]) ELISA. Solid white high-binding ELISA plates (Greiner #781074) were coated with 5 ug/ml anti-EGFR capture antibody (R&D Systems #AF231) overnight in 50 mM carbonate/bicarbonate pH 9.5 buffer. Plates were blocked with 1% BSA (Sigma #A7030) in PBS for 1 hour at room temperature. Wash steps were carried out with a Bio-Tek ELx405 SelectTM using 4 cycles of 100 ul TBS-T (20 mM Tris, 137 mM NaCl, 0.05% Tween-20) per well. […] Lysis was allowed to occur for 20 minutes on ice. A 25 ul aliquot was added to each well of the blocked ELISA plate and incubated overnight at 4° C. with gentle shaking. […] After washing, 1:2,000 anti-rabbit-HRP (Cell Signaling #7074) in 0.2% BSA/TBS-T was added and incubated for 1 hour at room temperature. Chemiluminescent detection was carried out with SuperSignal ELISA Pico substrate (ThermoScientific #37069). Signal was read on EnVision plate reader using built-in UltraLUM setting. Data Analysis. Control cells treated with EGF were set to 100% maximum response. […] With these parameters, the IC50's for each compound in each cell line was calculated using non-linear curve fitting analysis.
For orientation: An ELISA detects its analyte on a solid surface through an enzyme-linked reagent.

The target in experiment [5] is H3255 (EGFR L858R) (Homo sapiens, UniProt P00533, L858R). The experiment in a line: EGFR target modulation in H3255 cell line (phospho-EGFR Y1173 ELISA). It counts as cell-based. In short, it runs like this:
(§2)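 Readout: luminescent pY1173-EGFR sandwich ELISA on cell lysates. Treatment: compound, 3 h, 37 °C.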

Experiment [6] has as its target human EGFR L858R (NIH/3T3 cells) (Homo sapiens, UniProt P00533, L858R). The experiment in a line: EGFR target modulation in engineered NIH/3T3 cell lines (phospho-EGFR Y1068 AlphaLISA), EGFR L858R. The following applies: engineered NIH/3T3 cells, read-out: NIH3T3 IC50 (μM) EGFR (L858R). It counts as cell-based. In short, it runs like this: as §1
Experiment [7] deals with human EGFR WT (NIH/3T3 cells, EGF-induced) (Homo sapiens, UniProt P00533). The experiment in a line: EGFR target modulation in engineered NIH/3T3 cell lines (phospho-EGFR Y1068 AlphaLISA), EGFR WT. The following applies: engineered NIH/3T3 cells, read-out: NIH3T3 IC50 (μM) EGFR (WT). It counts as cell-based. In a few lines: as §1
Experiment [8] has as its target H1975 (EGFR L858/T790M) (Homo sapiens, UniProt P00533, L858R/T790M). The experiment in a line: EGFR target modulation in H1975 cell line (phospho-EGFR Y1173 ELISA). It counts as cell-based. In short, it runs like this: as §2
[9] abbreviates: EGFR (L858R/T790M) with 90 min pre-incubation, read-out: IC50 (μM) Column B.
The mark [10] stands for this setting: EGFR (L858R/T790M) with no pre-incubation, read-out: IC50 (μM) Column A.

Where two headings read alike, the source gives them in different places. A value given as a limit tells only on which side of the number the result lay.

T1 sequence (P00533 669-1210 T790M/L858R): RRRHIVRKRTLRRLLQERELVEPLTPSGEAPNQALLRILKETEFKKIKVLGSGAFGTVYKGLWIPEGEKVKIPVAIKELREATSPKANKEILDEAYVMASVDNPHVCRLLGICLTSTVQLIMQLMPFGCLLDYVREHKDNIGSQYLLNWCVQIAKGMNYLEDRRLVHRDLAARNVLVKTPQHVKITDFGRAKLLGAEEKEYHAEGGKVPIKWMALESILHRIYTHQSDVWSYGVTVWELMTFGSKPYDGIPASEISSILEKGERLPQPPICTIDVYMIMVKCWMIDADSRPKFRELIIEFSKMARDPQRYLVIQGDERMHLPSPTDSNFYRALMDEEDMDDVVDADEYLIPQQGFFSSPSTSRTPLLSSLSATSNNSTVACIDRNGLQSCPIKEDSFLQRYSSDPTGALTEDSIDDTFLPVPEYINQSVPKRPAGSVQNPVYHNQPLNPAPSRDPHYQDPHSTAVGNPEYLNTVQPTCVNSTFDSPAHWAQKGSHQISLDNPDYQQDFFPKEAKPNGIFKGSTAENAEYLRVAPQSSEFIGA
HCC827 (Del E746-A750), sequence (P00533 with tags, fused parts or gaps DEL746-750): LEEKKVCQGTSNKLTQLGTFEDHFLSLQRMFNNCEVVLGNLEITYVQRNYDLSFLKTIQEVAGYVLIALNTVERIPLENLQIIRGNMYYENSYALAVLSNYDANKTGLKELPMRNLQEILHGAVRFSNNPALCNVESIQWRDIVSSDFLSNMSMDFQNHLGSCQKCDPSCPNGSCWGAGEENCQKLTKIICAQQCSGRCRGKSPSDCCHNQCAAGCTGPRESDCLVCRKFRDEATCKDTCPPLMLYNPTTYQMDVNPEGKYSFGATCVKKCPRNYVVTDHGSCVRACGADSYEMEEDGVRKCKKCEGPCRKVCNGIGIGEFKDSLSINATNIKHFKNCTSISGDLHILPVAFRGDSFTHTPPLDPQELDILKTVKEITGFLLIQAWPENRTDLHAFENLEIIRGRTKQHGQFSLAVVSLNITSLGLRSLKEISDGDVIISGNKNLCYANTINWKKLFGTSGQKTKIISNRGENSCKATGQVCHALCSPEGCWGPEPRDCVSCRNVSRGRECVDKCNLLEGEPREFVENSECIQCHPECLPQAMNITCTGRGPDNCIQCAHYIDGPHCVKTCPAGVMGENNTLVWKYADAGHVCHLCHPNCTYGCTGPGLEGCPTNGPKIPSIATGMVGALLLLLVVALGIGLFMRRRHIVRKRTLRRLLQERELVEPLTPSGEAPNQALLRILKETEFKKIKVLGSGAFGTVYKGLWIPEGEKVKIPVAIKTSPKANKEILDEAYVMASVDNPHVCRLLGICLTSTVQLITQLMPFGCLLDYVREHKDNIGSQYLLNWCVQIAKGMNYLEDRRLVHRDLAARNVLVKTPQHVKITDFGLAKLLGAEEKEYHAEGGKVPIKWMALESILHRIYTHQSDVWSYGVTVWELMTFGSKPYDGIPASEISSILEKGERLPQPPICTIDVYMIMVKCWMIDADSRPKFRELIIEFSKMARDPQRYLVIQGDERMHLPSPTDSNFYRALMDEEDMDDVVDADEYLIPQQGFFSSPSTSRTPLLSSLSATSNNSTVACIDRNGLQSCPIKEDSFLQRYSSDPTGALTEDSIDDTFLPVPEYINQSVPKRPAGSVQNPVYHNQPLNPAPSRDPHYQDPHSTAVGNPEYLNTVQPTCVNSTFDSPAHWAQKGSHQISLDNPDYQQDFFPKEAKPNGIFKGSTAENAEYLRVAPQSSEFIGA
human EGFR L858R/T790M (NIH/3T3 cells), sequence (P00533 25-1210 T790M/L858R): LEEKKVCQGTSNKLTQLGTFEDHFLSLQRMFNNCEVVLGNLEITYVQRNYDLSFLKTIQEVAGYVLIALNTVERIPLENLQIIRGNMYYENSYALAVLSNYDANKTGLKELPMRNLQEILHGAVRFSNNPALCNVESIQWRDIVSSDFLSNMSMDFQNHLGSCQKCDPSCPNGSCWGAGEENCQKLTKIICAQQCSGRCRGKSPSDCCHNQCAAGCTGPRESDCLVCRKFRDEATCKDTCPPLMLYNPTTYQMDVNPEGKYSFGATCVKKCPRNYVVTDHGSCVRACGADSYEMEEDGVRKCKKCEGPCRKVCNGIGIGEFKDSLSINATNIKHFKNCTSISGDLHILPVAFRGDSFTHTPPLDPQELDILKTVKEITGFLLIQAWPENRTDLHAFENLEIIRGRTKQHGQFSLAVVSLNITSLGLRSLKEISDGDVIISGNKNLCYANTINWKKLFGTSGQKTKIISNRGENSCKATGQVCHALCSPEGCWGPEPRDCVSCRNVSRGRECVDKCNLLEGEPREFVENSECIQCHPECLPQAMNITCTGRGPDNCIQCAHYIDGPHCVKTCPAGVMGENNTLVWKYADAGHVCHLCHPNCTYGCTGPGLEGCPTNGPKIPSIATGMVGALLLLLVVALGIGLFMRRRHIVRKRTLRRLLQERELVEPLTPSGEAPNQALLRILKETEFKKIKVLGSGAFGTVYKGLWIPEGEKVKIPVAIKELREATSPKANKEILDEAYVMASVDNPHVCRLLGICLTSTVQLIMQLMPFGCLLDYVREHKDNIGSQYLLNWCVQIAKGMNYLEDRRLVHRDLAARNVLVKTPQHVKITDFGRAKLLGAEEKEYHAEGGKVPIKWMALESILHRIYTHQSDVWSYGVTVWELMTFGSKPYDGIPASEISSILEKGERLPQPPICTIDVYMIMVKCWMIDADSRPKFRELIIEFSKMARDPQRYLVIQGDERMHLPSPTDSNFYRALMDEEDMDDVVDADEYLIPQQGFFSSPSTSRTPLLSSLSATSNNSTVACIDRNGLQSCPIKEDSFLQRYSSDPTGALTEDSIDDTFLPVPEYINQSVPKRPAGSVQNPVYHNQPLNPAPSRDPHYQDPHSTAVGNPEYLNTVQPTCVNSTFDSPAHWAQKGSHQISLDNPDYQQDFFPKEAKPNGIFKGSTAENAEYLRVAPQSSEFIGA
H1975 (EGFR L858/T790M), sequence (P00533 25-1210 T790M/L858R): as above

Regarding `Cc1cc(C(=O)Nc2nc3cccc(Cl)c3n2[C@@H]2CCCCN(C(=O)/C=C/CN3CC(F)C3)C2)ccn1` [Example 2, (R,E)-N-(7-chloro-1-(1-(4-(3-fluoroazetidin-1-yl)but-2-enoyl)azepan-3-yl)-1H-benzo[d]imidazol-2-yl)-2-methylisonicotinamide], the IC50 in experiment [1] was 0.011 µM; in experiment [2], 910 nM; in experiment [3] (setting [9]) it was less than 0.001 µM; in experiment [3] (setting [10]) it was 0.01 µM; in experiment [4], less than 1 nM; in experiment [5] it was 15 nM. For the same compound, the IC50 turned out to be 0.008 µM in experiment [6], 0.183 µM in experiment [7] and 10 nM in experiment [8].

Turning to `Cc1cc(C(=O)Nc2nc3cccc(Cl)c3n2[C@@H]2CCCCN(C(=O)/C=C/CN3CCCC3)C2)ccn1` [Example 1, (R,E)-N-(7-chloro-1-(1-(4-(pyrrolidin-1-yl)but-2-enoyl)azepan-3-yl)-1H-benzo[d]imidazol-2-yl)-2-methylisonicotinamide], the IC50 in experiment [1] is 0.004 µM; in experiment [2], 450 nM; in experiment [3] (setting [9]) it was less than 0.001 µM; in experiment [3] (setting [10]) it was 0.007 µM; in experiment [4] it was 2 nM; in experiment [5] it was 12 nM. The IC50 in experiment [6] came to 0.004 µM; in experiment [7], 0.152 µM; in experiment [8], 8 nM.

Take `C=CC(=O)N1CCCC[C@@H](n2c(NC(=O)c3ccnc(C)c3)nc3cc(CN4CC(F)(F)C4)cc(C)c32)C1` [Example 17-153]: the IC50 in experiment [1] is 0.001 µM; in experiment [2], 61 nM; in experiment [3] (setting [9]), less than 0.001 µM; in experiment [3] (setting [10]), 0.002 µM; in experiment [4] it was less than 1 nM; in experiment [5] it was 2 nM. Also, the figures for the IC50 in experiment [6], in experiment [7] and in experiment [8] were 0.001 µM, 0.037 µM and less than 1 nM, respectively.

Regarding `C=CC(=O)N1CCCC[C@@H](n2c(NC(=O)c3ccnc(C)c3)nc3cc(CN4CCC(F)(F)C4)cc(C)c32)C1` [Example 17-151], the IC50 is 0.001 µM in experiment [1]; 36 nM in experiment [2]; less than 0.001 µM in experiment [3] (setting [9]); 0.001 µM in experiment [3] (setting [10]); less than 1 nM in experiment [4]; 1 nM in experiment [5]. In addition, the IC50 is less than 0.001 µM in experiment [6], 0.014 µM in experiment [7] and less than 1 nM in experiment [8].

Turning to `CO[C@H]1CCN(C/C=C/C(=O)N2CCCC[C@@H](n3c(NC(=O)c4ccnc(C)c4)nc4cccc(Cl)c43)C2)C1` [Example 3-5], the IC50 was 0.006 µM in experiment [1]; 580 nM in experiment [2]; less than 0.001 µM in experiment [3] (setting [9]); 0.007 µM in experiment [3] (setting [10]); less than 1 nM in experiment [4]; 12 nM in experiment [5]. The IC50 in experiment [6] was 0.006 µM; in experiment [7], 0.259 µM; in experiment [8] it was 8 nM.

On to `C=CC(=O)N1CCCC[C@@H](n2c(NC(=O)c3ccnc(C)c3)nc3cc(CN4CCS(=O)(=O)CC4)cc(C)c32)C1` [Example 17-155], for which the IC50 is 0.002 µM in experiment [1]; 61 nM in experiment [2]; less than 0.001 µM in experiment [3] (setting [9]); 0.002 µM in experiment [3] (setting [10]); less than 1 nM in experiment [4]; 2 nM in experiment [5]. The IC50 in experiment [6] stood at 0.002 µM; in experiment [7], 0.065 µM; in experiment [8] it was 2 nM.

For the compound `C=CC(=O)N1CCCC[C@@H](n2c(NC(=O)c3ccnc(C)c3)nc3cc(CN4CCC4)cc(C)c32)C1` [Example 17-145], the IC50 is 0.001 µM in experiment [1]; 95 nM in experiment [2]; less than 0.001 µM in experiment [3] (setting [9]); 0.001 µM in experiment [3] (setting [10]); less than 1 nM in experiment [4]; 2 nM in experiment [5]. Further, the IC50 in experiment [6] is less than 0.001 µM; in experiment [7], 0.026 µM; in experiment [8], 1 nM.
